Assay results as given in patent US20200268728A1, “DRUG TARGETING CANCER STEM CELL” (Sumitomo Dainippon Pharma Co., Ltd., priority 2016, published 2020).

What was measured:
Assay in all cases: Sphere-forming ability of cultured cancer cell lines (Test Example 10)
Type in all cases: cell-based
[1] = system: Panc-1; conditions: Homo sapiens, 96 h; Panc-1 pancreatic cancer cell line, 4 days
Description: (§1) The colon cancer cell lines SW480, DLD1, HCT15, HT29, SW948, LS174T, LS411N, SW620, LoVo, HCT116, Colo205, and Hs698T, the pancreatic cancer cell lines MiaPaca2, HPAFII, Capan2, and Panc1, the head and neck cancer cell line FaDu, the breast cancer cell lines HCC1954 and T47D, the bladder cancer cell line SW780, the liver cancer cell line HepG2, the neuroblastoma cell lines U87MG and U251, the lung cancer cell lines H460, H1437, and A549, the prostate cancer cell lines DU145 and PC3, the soft tissue tumor cell line HT1080, the testicular cancer cell line NTERA2, and the ovarian cancer cell line SKOV3 was suspended in the sphere formation medium (DMEM-F12 medium of Test Example 3 was used), and seeded in a 384-well plate with Ultra-Low Attachment surface (Corning) in an amount of 5×10^3-10×10^3 cells/well. The compound of Example 24 was then added into each well to adjust the final concentration to 10-10000 nmol/L. The plate was cultured at 37° C. and 5% carbon dioxide in an incubator for 4 days. After the culture, CellTiterGlo (Promega) was added into all of the wells, and the plate was allowed to stand at room temperature for 10 minutes to measure the intensity of luminescence of each well. The concentrations of each test compound for 50% inhibition of cell proliferation to the cell lines (Sphere IC50 value; μmol/L) was calculated from the measured intensity of luminescence. When each gene mutation in Table is reported, the mutation is represented by “+” (gene mutation information is cited from the ATCC website (https://www.atcc.org/en/Products/Cells_and_Microorganisms/Cell_Lines/Cell_lines_by_genetic_mutation.aspx), Cancer Cell Line Encyclopedia (https://portals.broadinstitute.org/ccle_legacy/home), Proc. Natl. Acad. Sci. USA 94 (1997) 10330-10334).

[2] = system: NCI-H1437; conditions: Homo sapiens, 96 h; NCI-H1437 lung cancer cell line, 4 days
Description: as §1

[3] = system: PC-3; conditions: Homo sapiens, 96 h; PC-3 prostate cancer cell line, 4 days
Description: as §1

[4] = system: DLD-1; conditions: Homo sapiens, 96 h; DLD-1 colon cancer cell line, 4 days
Description: as §1

[5] = system: DU 145; conditions: Homo sapiens, 96 h; DU 145 prostate cancer cell line, 4 days
Description: as §1

[6] = system: LS 174T; conditions: Homo sapiens, LS174T, 96 h; LS 174T colon cancer cell line, 4 days
Description: as §1

[7] = system: HT-29; conditions: Homo sapiens, 96 h; HT-29 colon cancer cell line, 4 days
Description: as §1

[8] = system: HCC1954; conditions: Homo sapiens, 96 h; HCC1954 breast cancer cell line, 4 days
Description: as §1

[9] = system: NTERA-2; conditions: NTERA2, 96 h; NTERA-2 testicular cancer cell line, 4 days
Description: as §1

[10] = system: FaDu; conditions: Homo sapiens, 96 h; FaDu head and neck cancer cell line, 4 days
Description: as §1

[11] = system: SW 780; conditions: Homo sapiens, SW780, 96 h; SW 780 bladder cancer cell line, 4 days
Description: as §1

[12] = system: HPAF-II; conditions: Homo sapiens, 96 h; HPAF-II pancreatic cancer cell line, 4 days
Description: as §1

[13] = system: U-87 MG; conditions: Homo sapiens, 96 h; U-87 MG glioblastoma cell line, 4 days
Description: as §1

[14] = system: SW620; conditions: Homo sapiens, SW-620, 96 h; SW620 colon cancer cell line, 4 days
Description: as §1

[15] = system: SW480; conditions: Homo sapiens, 96 h; SW480 colon cancer cell line, 4 days
Description: as §1

[16] = system: LoVo; conditions: Homo sapiens, 96 h; LoVo colon cancer cell line, 4 days
Description: as §1

[17] = system: SW948; conditions: Homo sapiens, 96 h; SW948 colon cancer cell line, 4 days
Description: as §1

[18] = system: COLO 205; conditions: Homo sapiens, 96 h; COLO 205 colon cancer cell line, 4 days
Description: as §1

[19] = system: HCT-15; conditions: Homo sapiens, 96 h; HCT-15 colon cancer cell line, 4 days
Description: as §1

[20] = system: T-47D; conditions: Homo sapiens, T47D, 96 h; T-47D breast cancer cell line, 4 days
Description: as §1

[21] = system: Capan-2; conditions: Homo sapiens, 96 h; Capan-2 pancreatic cancer cell line, 4 days
Description: as §1

[22] = system: Hs 698.T; conditions: 96 h; Hs 698.T colon cancer cell line, 4 days
Description: as §1

[23] = system: Hep G2; conditions: Homo sapiens, HepG2, 96 h; Hep G2 liver cancer cell line, 4 days
Description: as §1

[24] = system: HCT 116; conditions: Homo sapiens, 96 h; HCT 116 colon cancer cell line, 4 days
Description: as §1

[25] = system: MIA PaCa-2; conditions: Homo sapiens, 96 h; MIA PaCa-2 pancreatic cancer cell line, 4 days
Description: as §1

[26] = system: HT-1080; conditions: Homo sapiens, 96 h; HT-1080 soft tissue tumor cell line, 4 days
Description: as §1

[27] = system: A549; conditions: Homo sapiens, 96 h; A549 lung cancer cell line, 4 days
Description: as §1

IC50 [1]: > 10 µM
IC50 [2]: 3.88 µM
IC50 [3]: > 10 µM
IC50 [4]: 0.007 µM
IC50 [5]: > 10 µM
IC50 [6]: 0.015 µM
IC50 [7]: 0.009 µM
IC50 [8]: 0.023 µM
IC50 [9]: > 10 µM
IC50 [10]: 0.009 µM
IC50 [11]: 0.056 µM
IC50 [12]: 0.764 µM
IC50 [13]: 0.089 µM
IC50 [14]: 0.027 µM
IC50 [15]: 0.004 µM
IC50 [16]: 0.028 µM
IC50 [17]: 0.009 µM
IC50 [18]: 0.142 µM
IC50 [19]: 0.008 µM
IC50 [20]: 0.046 µM
IC50 [21]: > 10 µM
IC50 [22]: > 10 µM
IC50 [23]: 0.072 µM
IC50 [24]: 0.091 µM
IC50 [25]: 0.008 µM
IC50 [26]: > 10 µM
IC50 [27]: > 10 µM
SMILES: O=C(Nc1cn(Cc2cc(F)c(F)c(F)c2)cn1)c1cnc(CO)c(C(F)F)c1 [Example 24, 5-(difluoromethyl)-6-(hydroxymethyl)-N-[1-(3,4,5-trifluorobenzyl)-1H-imidazol-4-yl]nicotinamide]
